System: β-galactosidase
Assay: Testing effects of serum on native enzyme activity with DUG
Format: biochemical
Conditions: 0.02 mM DUG, 37°, 10 second delay, 30 second read
Method: (2) Testing effects of serum on native enzyme activity with DUG:
The procedure of c (1) above was followed using 50 µl of 1.75×PBS,N3, Mg+0.5% RSA and 50 μ1 β-galactosidase in place of serum and conjugate, respectively, and […] of 0.02mM DUG in 1.75×PBX, N3, Mg +0.5% RSA.
The fluorescence rate was measured at 37° , 10 second delay, 30 second read.

β-galactosidase: native active enzyme used as label in the immunoassay
ΔF/30 sec., Buffer (native enzyme in buffer): 250 ΔF/30 sec. | ΔF/30 sec., Serum (native enzyme in serum): 230 ΔF/30 sec.

Source: patent US4668620A, “Reducing background interference activity in enzyme-label immunoassays” (Syntex (U.S.A.) Inc., priority 1984, dated 1987)
